Assay results published in EPA's ToxValDB 9.5.

System: Rattus norvegicus
Details: for LOEL / NOEL: oral, gavage
[1] = reproduction developmental, duration: 28 days, inhalation, M, Wistar, generation: P0, P0: Whole Body: Body Weight Change
[2] = short-term, duration: 28 days, inhalation, F, Wistar, Kidney: Creatinine (CREAT)
[3] = short-term, duration: 28 days, inhalation, F, Wistar, Kidney: Creatinine (CREAT) + Multi-Organ: Gamma-Glutamyl Transferase (GGT)
[4] = short-term, duration: 28 days, inhalation, F, Wistar, Kidney: Fluoride, Total Urinary Excretion + Kidney: Fluoride, Urine + Kidney: Urinary Fluoride/Creatinine Ratio + Liver: Liver Weight, …
[5] = short-term, duration: 28 days, inhalation, F, Wistar, Liver: Liver Weight, Absolute + Liver: Liver Weight, Relative + Lung: Lung Histopathology + Lung: Lung Weight, Absolute + Lung: Lung Weight…
[6] = short-term, duration: 28 days, inhalation, F, Wistar, Liver: Total Bilirubin (TBILI)
[7] = short-term, duration: 28 days, inhalation, M, Wistar, Kidney: Creatinine (CREAT) + Whole Body: Body Weight Change + Whole Body: Food Conversion Efficiency + Whole Body: Food Intake
[8] = short-term, duration: 28 days, inhalation, M, Wistar, Kidney: Fluoride, Total Urinary Excretion + Kidney: Fluoride, Urine + Kidney: Urinary Fluoride/Creatinine Ratio + Lung: Lung Histopathology…
[9] = short-term, duration: 28 days, inhalation, M, Wistar, Liver: Albumin (A) + Liver: Triglycerides (TRIG) + Multi-Organ: Cholesterol, Total + Multi-organ: Glucose (GLU)
[10] = short-term, duration: 28 days, inhalation, M, Wistar, Liver: Albumin (A) + Multi-Organ: Glucose (GLU) + Renal: Fluoride, Total Urinary Excretion + Renal: Fluoride, Urine + Renal: Fluoride/…
[11] = short-term, duration: 28 days, inhalation, M, Wistar, Lung: Lung Histopathology + Lung: Lung Weight, Absolute + Lung: Lung Weight, Relative + Spleen: Spleen Weight, Absolute + Spleen: Spleen …
[12] = short-term, duration: 28 days, inhalation, M, Wistar, Whole Body: Body Weight Change
[13] = subchronic, duration: 91 days, inhalation, F, Wistar, Blood: Albumin/Globulin (A/G) Ratio + Liver: Liver Weight, Relative + Multi-Organ: Acyl-CoA Oxidase Activity
[14] = subchronic, duration: 91 days, inhalation, F, Wistar, Kidney: Kidney Weight, Relative + Liver: Albumin (A)
[15] = subchronic, duration: 91 days, inhalation, M, Wistar, Blood: Mean Corpuscular Hemoglobin (MCH) + Liver: Albumin (A) + Liver: Alkaline Phosphatase (ALP) + Liver: Cholesterol (CHOL), Total + Liver…
[16] = subchronic, duration: 91 days, inhalation, M, Wistar, Blood: Mean Corpuscular Hemoglobin (MCH), Recovery + Blood: Mean Corpuscular Volume (MCV) + Blood: Platelet Count (PLT), Recovery + Blood: …
[17] = reproduction developmental, duration: 28 days, inhalation, M, Sprague-Dawley, generation: P0, P0: Other Systems: Bone: Bone Histopathology + P0: Other Systems: Esophagus: Esophagus Histopathology + P0: Other Systems: Eye: Eye …
[18] = reproduction developmental, duration: 50 days, inhalation, F, Sprague-Dawley, generation: P0, P0: Other Systems: Bone: Bone Histopathology + P0: Other Systems: Esophagus: Esophagus Histopathology + P0: Other Systems: Eye: Eye …
[19] = short-term, duration: 3 weeks, inhalation, M/F, Alpk:Albino, Whole Body: Body Weight Change + Whole Body: Clinical Observations
[20] = chronic, duration: 92 days, F, Wistar, kidney: relative kidney weight
[21] = chronic, duration: 92 days, M, Wistar, liver: relative liver weight
[22] = short-term, duration: 28 days, F, Wistar, kidney: absolute kidney weight + kidney: relative kidney weight + liver: absolute liver weight + liver: relative liver weight
[23] = short-term, duration: 28 days, M, Wistar, adrenal gland: absolute adrenal gland weight + adrenal gland: relative adrenal gland weight + testis: relative testis weight + thymus: …
[24] = short-term, duration: 28 days, M, Wistar, liver: relative liver weight + spleen: absolute spleen weight

## O=C(C(F)(F)C(F)(F)F)C(F)(C(F)(F)F)C(F)(F)F [Perfluoro-2-methyl-3-pentanone]
developmental, duration: 13 days, inhalation, M/F, Sprague-Dawley, generation: F1, F1: Uterus: Resorptions, Early + F1: Uterus: Resorptions, Late + F1: Whole Body: Fetal Alterations, Total
  NOAEL: 38800 mg/m3
Reproduction developmental, duration: 4 days, inhalation, F, Wistar, generation: F1, F1: Whole Body: Body Weight Change + F1: Whole Body: Body Weight, Absolute + F1: Whole Body: Clinical Observations + F1: Whole Body: Live …
  NOAEL: 38800 mg/m3
Reproduction developmental, duration: 4 days, inhalation, F, Wistar, generation: P0, P0: Uterus: Estrous Cycle + P0: Whole Body: Body Weight Change + P0: Whole Body: Body Weight, Absolute + P0: Whole Body: Clinical …
  NOAEL: 38800 mg/m3
Reproduction developmental, duration: 13 days, inhalation, F, Sprague-Dawley, generation: P0, P0: Ovary: Corpora Lutea + P0: Ovary: Ovary, Necropsy + P0: Placenta: Normal Placenta + P0: Uterus: Implantation + P0: Uterus: Uterine …
  NOAEL: 38800 mg/m3
Reproduction developmental, duration: 28 days, inhalation, M, Wistar, generation: P0, P0: Epididymis: Epididymis Weight, Absolute + P0: Testis: Testis Weight, Absolute + P0: Whole Body: Body Weight, Absolute + P0: Whole Body: …
  NOAEL: 38800 mg/m3
[1]
  LOAEL: 12900 mg/m3
  NOAEL: 3880 mg/m3
short-term, duration: 28 days, inhalation, F, Wistar, Adrenal: Adrenal Gland Histopathology + Bladder: Urinary Bladder Histopathology + Blood: Albumin/Globulin (A/G) Ratio + Blood: Hematocrit (…
  NOAEL: 259000 mg/m3
short-term, duration: 28 days, inhalation, F, Wistar, Blood: Albumin/Globulin (A/G) Ratio + Blood: Hematology, Unspecified + Liver: Albumin (A) + Liver: Liver Histopathology + Multi-Organ: …
  NOAEL: 245000 mg/m3
[2]
  LOAEL: 259000 mg/m3
  NOAEL: 129000 mg/m3
[3]
  LOAEL: 245000 mg/m3
  NOAEL: 125000 mg/m3
[4]
  LOAEL: 125000 mg/m3
  NOAEL: 49600 mg/m3
[5]
  LOAEL: 129000 mg/m3
  NOAEL: 51700 mg/m3
short-term, duration: 28 days, inhalation, F, Wistar, Liver: Peroxisome Induction + Liver: Phospholipid + Liver: Triglycerides (TRIG) + Spleen: Spleen Weight, Absolute + Spleen: Spleen Weight, …
  LOAEL: 12900 mg/m3
short-term, duration: 28 days, inhalation, F, Wistar, Liver: Peroxisome Induction + Liver: Phospholipid + Spleen: Spleen Weight, Absolute + Spleen: Spleen Weight, Relative
  LOAEL: 12400 mg/m3
[6]
  LOAEL: 51700 mg/m3
  NOAEL: 12900 mg/m3
short-term, duration: 28 days, inhalation, M, Wistar, Adrenal: Adrenal Gland Histopathology + Bladder: Urinary Bladder Histopathology + Blood: Hematocrit (HCT) + Blood: Hemoglobin (HGB) + Blood…
  NOAEL: 259000 mg/m3
short-term, duration: 28 days, inhalation, M, Wistar, Blood: Albumin/Globulin (A/G) Ratio + Blood: Hematology, Unspecified + Kidney: Creatinine (CREAT) + Liver: Phospholipid + Multi-Organ: Gamma…
  NOAEL: 245000 mg/m3
short-term, duration: 28 days, inhalation, M, Wistar, Blood: Albumin/Globulin (A/G) Ratio + Liver: Liver Histopathology + Liver: Liver Weight, Absolute + Liver: Liver Weight, Relative + Liver: …
  LOAEL: 12900 mg/m3
[7]
  LOAEL: 259000 mg/m3
  NOAEL: 129000 mg/m3
[8]
  LOAEL: 125000 mg/m3
  NOAEL: 49600 mg/m3
[9]
  LOAEL: 49600 mg/m3
  NOAEL: 12400 mg/m3
[10]
  LOAEL: 51700 mg/m3
  NOAEL: 12900 mg/m3
short-term, duration: 28 days, inhalation, M, Wistar, Liver: Liver Histopathology + Liver: Liver Weight, Absolute + Liver: Liver Weight, Relative + Liver: Peroxisome Induction
  LOAEL: 12400 mg/m3
[11]
  LOAEL: 129000 mg/m3
  NOAEL: 51700 mg/m3
[12]
  LOAEL: 245000 mg/m3
  NOAEL: 125000 mg/m3
[13]
  LOAEL: 38800 mg/m3
  NOAEL: 12900 mg/m3
subchronic, duration: 91 days, inhalation, F, Wistar, Blood: Albumin/Globulin (A/G) Ratio, Recovery + Blood: Mean Corpuscular Hemoglobin (MCH) + Blood: Mean Corpuscular Volume (MCV) + Blood: Red…
  NOAEL: 38800 mg/m3
[14]
  LOAEL: 12900 mg/m3
  NOAEL: 3880 mg/m3
subchronic, duration: 91 days, inhalation, F, Wistar, Spleen: Spleen Weight, Absolute
  LOAEL: 3880 mg/m3
subchronic, duration: 91 days, inhalation, M, Wistar, Blood: Albumin/Globulin (A/G) Ratio + Kidney: Kidney Weight, Absolute + Kidney: Kidney Weight, Relative + Liver: Liver Weight, Absolute + …
  LOAEL: 3880 mg/m3
subchronic, duration: 91 days, inhalation, M, Wistar, Blood: Albumin/Globulin (A/G) Ratio, Recovery + Brain: Brain Weight, Absolute + Brain: Brain Weight, Relative + Eye: Ophthalmology, …
  NOAEL: 38800 mg/m3
[15]
  LOAEL: 12900 mg/m3
  NOAEL: 3880 mg/m3
[16]
  LOAEL: 38800 mg/m3
  NOAEL: 12900 mg/m3

## FC(F)=C(F)OC(F)(F)C(F)(F)C(F)(F)F [Perfluoropropyl trifluorovinyl ether]
Reproduction developmental, duration: 28 days, inhalation, M, Sprague-Dawley, generation: P0, P0: Cardiovascular: Aorta: Aorta Histopathology + P0: Cardiovascular: Heart: Heart Histopathology + P0: Cardiovascular: Heart: Heart Weight…
  LOAEL: 43900 mg/m3
[17]
  LOAEL: 43900 mg/m3
  NOAEL: 10900 mg/m3
Reproduction developmental, duration: 50 days, inhalation, F, Sprague-Dawley, generation: P0, P0: Cardiovascular: Aorta: Aorta Histopathology + P0: Cardiovascular: Heart: Heart Histopathology + P0: Cardiovascular: Heart: Heart Weight…
  LOAEL: 43900 mg/m3
[18]
  LOAEL: 43900 mg/m3
  NOAEL: 10900 mg/m3
short-term, duration: 3 weeks, inhalation, F, Alpk:Albino, Multi-organ: Uterus and Gonad (Unspecified) Histopathology
  NEL: 54400 mg/m3
short-term, duration: 3 weeks, inhalation, M/F, Alpk:Albino, Blood: Potassium (K), Blood + Blood: Sodium (Na), Blood + Heart: Heart Histopathology + Kidney: Glucose (GLU), Urine + Kidney: Protein, …
  NEL: 54400 mg/m3
[19]
  LEL: 54400 mg/m3
  NEL: 27200 mg/m3
short-term, duration: 3 weeks, inhalation, M, Alpk:Albino, Multi-organ: Epididymis and Gonad (Unspecified) Histopathology
  NEL: 54400 mg/m3

## Cc1ccc(S(=O)(=O)NC(=O)Nc2cccc(OS(=O)(=O)c3ccc(C)cc3)c2)cc1 [Pergafast 201]
[20]
  LOEL: 150 mg/kg-day
  NOEL: 50 mg/kg-day
chronic, duration: 92 days, F, Wistar, liver: absolute liver weight + liver: relative liver weight
  LOEL: 12.5 mg/kg-day
[21]
  LOEL: 150 mg/kg-day
  NOEL: 50 mg/kg-day
[22]
  LOEL: 150 mg/kg-day
  NOEL: 30 mg/kg-day
[23]
  LOEL: 750 mg/kg-day
  NOEL: 150 mg/kg-day
short-term, duration: 28 days, M, Wistar, brain: relative brain weight + liver: absolute liver weight
  LOEL: 30 mg/kg-day
[24]
  LOEL: 150 mg/kg-day
  NOEL: 30 mg/kg-day
